In the supplement of paper PMC10307832:

Key:
Assay in all cases: relative viability (nuclei count vs DMSO), 5 days (fraction); higher = more cells survive
NCI-H2009 = test system: NCI-H2009
How it was run: (§1)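 Medians of duplicate plates are given as relative viability. That measure is the nuclei count in treated wells divided by the count in vehicle wells. Counts were taken on 4× images of lung cancer cell lines in 1536-well plates, 5 days after pin-tool dosing the day after seeding with one drug alone or a fixed anchor-drug dose plus five library-drug doses (not always all listed) in √10 steps.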

NCI-H1395 = test system: NCI-H1395
How it was run: as §1

BEN = test system: BEN
How it was run: as §1

NCI-H2228 = test system: NCI-H2228
How it was run: as §1

201T = test system: 201T
How it was run: as §1

LU99A = test system: LU99A
How it was run: as §1

NCI-H650 = test system: NCI-H650
How it was run: as §1

HCC-15 = test system: HCC-15
How it was run: as §1

NCI-H2126 = test system: NCI-H2126
How it was run: as §1

EPLC-272H = test system: EPLC-272H
How it was run: as §1

LCLC-97TM1 = test system: LCLC-97TM1
How it was run: as §1

NCI-H838 = test system: NCI-H838
How it was run: as §1

NCI-H322M = test system: NCI-H322M
How it was run: as §1

HCC-78 = test system: HCC-78
How it was run: as §1

NCI-H661 = test system: NCI-H661
How it was run: as §1

NCI-H23 = test system: NCI-H23
How it was run: as §1

NCI-H647 = test system: NCI-H647
How it was run: as §1

NCI-H1355 = test system: NCI-H1355
How it was run: as §1

NCI-H2085 = test system: NCI-H2085
How it was run: as §1

NCI-H460 = test system: NCI-H460
How it was run: as §1

NCI-H2342 = test system: NCI-H2342
How it was run: as §1

NCI-H2405 = test system: NCI-H2405
How it was run: as §1

PC-14 = test system: PC-14
How it was run: as §1

Compound CN1CCN(CCOc2cc(OC3CCOCC3)c3c(Nc4c(Cl)ccc5c4OCO5)ncnc3c2)CC1 [Saracatinib] + Cc1nc(Nc2ncc(C(=O)Nc3c(C)cccc3Cl)s2)cc(N2CCN(CCO)CC2)n1 [Dasatinib] (partner 0.075 µM) has a relative viability (NCI-H2009; first compound 0.02 µM) of 0.298, a relative viability (NCI-H2009; first compound 0.2 µM) of 0.274 and a relative viability (NCI-H2009; first compound 0.6325 µM) of 0.262. For the same compound, the relative viability (NCI-H2009; first compound 2 µM) was 0.265, the relative viability (NCI-H1395; first compound 0.02 µM) was 0.394 and the relative viability (NCI-H1395; first compound 0.2 µM) was 0.418. It also gave a relative viability (NCI-H1395; first compound 0.6325 µM) of 0.411, a relative viability (NCI-H1395; first compound 2 µM) of 0.402 and a relative viability (BEN; first compound 0.02 µM) of 0.329. The relative viability (BEN; first compound 0.6325 µM) was 0.373, the relative viability (BEN; first compound 2 µM) was 0.418 and the relative viability (NCI-H2228; first compound 0.02 µM) was 0.501. The relative viability (NCI-H2228; first compound 0.2 µM) was 0.556, the relative viability (NCI-H2228; first compound 0.6325 µM) was 0.576 and the relative viability (NCI-H2228; first compound 2 µM) was 0.372. For the same compound, the relative viability (201T; first compound 0.02 µM) was 0.602, the relative viability (201T; first compound 0.2 µM) was 0.567 and the relative viability (201T; first compound 0.6325 µM) was 0.57. It also gave a relative viability (201T; first compound 2 µM) of 0.489, a relative viability (LU99A; first compound 0.02 µM) of 0.567 and a relative viability (LU99A; first compound 0.2 µM) of 0.578. For the same compound, the relative viability (LU99A; first compound 0.6325 µM) was 0.652, the relative viability (LU99A; first compound 2 µM) was 0.558 and the relative viability (NCI-H650; first compound 0.02 µM) was 0.491. The relative viability (NCI-H650; first compound 0.2 µM) was 0.416, the relative viability (NCI-H650; first compound 0.6325 µM) was 0.477 and the relative viability (NCI-H650; first compound 2 µM) was 0.429. It also gave a relative viability (HCC-15; first compound 0.02 µM) of 0.595, a relative viability (HCC-15; first compound 0.2 µM) of 0.524 and a relative viability (HCC-15; first compound 0.6325 µM) of 0.605. The relative viability (HCC-15; first compound 2 µM) was 0.561, the relative viability (NCI-H2126; first compound 0.02 µM) was 0.569 and the relative viability (NCI-H2126; first compound 0.2 µM) was 0.511. The relative viability (NCI-H2126; first compound 0.6325 µM) was 0.532, the relative viability (NCI-H2126; first compound 2 µM) was 0.398 and the relative viability (EPLC-272H; first compound 0.02 µM) was 0.382. It also gave a relative viability (EPLC-272H; first compound 0.2 µM) of 0.401, a relative viability (EPLC-272H; first compound 0.6325 µM) of 0.375 and a relative viability (EPLC-272H; first compound 2 µM) of 0.307. It also gave a relative viability (LCLC-97TM1; first compound 0.02 µM) of 0.636, a relative viability (LCLC-97TM1; first compound 0.2 µM) of 0.519 and a relative viability (LCLC-97TM1; first compound 0.6325 µM) of 0.723. It also gave a relative viability (LCLC-97TM1; first compound 2 µM) of 0.33, a relative viability (NCI-H838; first compound 0.02 µM) of 0.274 and a relative viability (NCI-H838; first compound 0.2 µM) of 0.277. The relative viability (NCI-H838; first compound 0.6325 µM) was 0.277, the relative viability (NCI-H838; first compound 2 µM) was 0.281 and the relative viability (NCI-H322M; first compound 0.02 µM) was 0.245. For the same compound, the relative viability (NCI-H322M; first compound 0.2 µM) was 0.196, the relative viability (NCI-H322M; first compound 0.6325 µM) was 0.211 and the relative viability (NCI-H322M; first compound 2 µM) was 0.215. For the same compound, the relative viability (HCC-78; first compound 0.02 µM) was 0.477, the relative viability (HCC-78; first compound 0.6325 µM) was 0.421 and the relative viability (HCC-78; first compound 2 µM) was 0.352. It also gave a relative viability (NCI-H661; first compound 0.02 µM) of 0.891, a relative viability (NCI-H661; first compound 0.2 µM) of 0.797 and a relative viability (NCI-H661; first compound 0.6325 µM) of 0.817. It also gave a relative viability (NCI-H661; first compound 2 µM) of 0.528, a relative viability (NCI-H23; first compound 0.02 µM) of 0.805 and a relative viability (NCI-H23; first compound 0.2 µM) of 0.613. It also gave a relative viability (NCI-H23; first compound 0.6325 µM) of 0.837, a relative viability (NCI-H23; first compound 2 µM) of 0.789 and a relative viability (NCI-H647; first compound 0.02 µM) of 0.246. It also gave a relative viability (NCI-H647; first compound 0.2 µM) of 0.242, a relative viability (NCI-H647; first compound 0.6325 µM) of 0.214 and a relative viability (NCI-H647; first compound 2 µM) of 0.246. The relative viability (NCI-H1355; first compound 0.02 µM) was 0.716, the relative viability (NCI-H1355; first compound 0.2 µM) was 0.703 and the relative viability (NCI-H1355; first compound 0.6325 µM) was 0.774. It also gave a relative viability (NCI-H1355; first compound 2 µM) of 0.731, a relative viability (NCI-H2085; first compound 0.02 µM) of 0.286 and a relative viability (NCI-H2085; first compound 0.2 µM) of 0.321. The relative viability (NCI-H2085; first compound 0.6325 µM) was 0.345, the relative viability (NCI-H2085; first compound 2 µM) was 0.3 and the relative viability (NCI-H460; first compound 0.02 µM) was 0.587. For the same compound, the relative viability (NCI-H460; first compound 0.2 µM) was 0.418, the relative viability (NCI-H460; first compound 0.6325 µM) was 0.603 and the relative viability (NCI-H460; first compound 2 µM) was 0.46. The relative viability (NCI-H2342; first compound 0.02 µM) was 0.398, the relative viability (NCI-H2342; first compound 0.2 µM) was 0.327 and the relative viability (NCI-H2342; first compound 0.6325 µM) was 0.305. It also gave a relative viability (NCI-H2342; first compound 2 µM) of 0.295, a relative viability (NCI-H2405; first compound 0.02 µM) of 0.22 and a relative viability (NCI-H2405; first compound 0.2 µM) of 0.223. It also gave a relative viability (NCI-H2405; first compound 0.6325 µM) of 0.228, a relative viability (NCI-H2405; first compound 2 µM) of 0.169 and a relative viability (PC-14; first compound 0.02 µM) of 0.211. For the same compound, the relative viability (PC-14; first compound 0.2 µM) was 0.127, the relative viability (PC-14; first compound 0.6325 µM) was 0.0455 and the relative viability (PC-14; first compound 2 µM) was 0.0398.
